Laboratory results taken from the supplement of paper PMC13380429.

Tests used:
Settings in all cases: 72 h
HepG2 [1] = experiment: cell viability relative to DMSO; higher = less toxic
Caco-2 [2] = experiment: as above
Vero E6 [3] = experiment: as above
U2OS [4] = experiment: as above
Calu-3 [5] = experiment: as above
HepG2 [6] = experiment: drug sensitivity score (DSS) for viability; higher = more toxic; extreme values may be limits of the assay
Caco-2 [7] = experiment: as above
Vero E6 [8] = experiment: as above
U2OS [9] = experiment: as above
Calu-3 [10] = experiment: as above
HepG2 [11] = experiment: relative viability EC50 (midpoint between 100% and the lowest measured viability); higher = less toxic
Caco-2 [12] = experiment: as above
Vero E6 [13] = experiment: as above
U2OS [14] = experiment: as above
Calu-3 [15] = experiment: as above

| SMILES | cell viability (HepG2 [1]; 1 nM) | cell viability (HepG2 [1]; 10 nM) | cell viability (HepG2 [1]; 100 nM) | cell viability (HepG2 [1]; 1000 nM) | cell viability (HepG2 [1]; 10000 nM) | cell viability (Caco-2 [2]; 1 nM) | cell viability (Caco-2 [2]; 10 nM) | cell viability (Caco-2 [2]; 100 nM) | cell viability (Caco-2 [2]; 1000 nM) | cell viability (Caco-2 [2]; 10000 nM) | cell viability (Vero E6 [3]; 1 nM) | cell viability (Vero E6 [3]; 10 nM) | cell viability (Vero E6 [3]; 100 nM) | cell viability (Vero E6 [3]; 1000 nM) | cell viability (Vero E6 [3]; 10000 nM) | cell viability (U2OS [4]; 1 nM) | cell viability (U2OS [4]; 10 nM) | cell viability (U2OS [4]; 100 nM) | cell viability (U2OS [4]; 1000 nM) | cell viability (U2OS [4]; 10000 nM) | cell viability (Calu-3 [5]; 1 nM) | cell viability (Calu-3 [5]; 10 nM) | cell viability (Calu-3 [5]; 100 nM) | cell viability (Calu-3 [5]; 1000 nM) | cell viability (Calu-3 [5]; 10000 nM) | drug sensitivity score (HepG2 [6]) | drug sensitivity score (Caco-2 [7]) | drug sensitivity score (Vero E6 [8]) | drug sensitivity score (U2OS [9]) | drug sensitivity score (Calu-3 [10]) | relative viability EC50 (HepG2 [11]) | relative viability EC50 (Caco-2 [12]) | relative viability EC50 (Vero E6 [13]) | relative viability EC50 (U2OS [14]) | relative viability EC50 (Calu-3 [15]) |
| --- | --- | --- | --- | --- | --- | --- | --- | --- | --- | --- | --- | --- | --- | --- | --- | --- | --- | --- | --- | --- | --- | --- | --- | --- | --- | --- | --- | --- | --- | --- | --- | --- | --- | --- | --- |
| COc1ccc2[nH]c([S+]([O-])Cc3ncc(C)c(OC)c3C)nc2c1 (stereo not given) [omeprazole-magnesium] | 87.7% | 98.4% | 86.3% | 99.7% | 95.1% | 90.7% | 72.4% | 100% | 97.4% | 107% | 102% | 105% | 96.2% | 96.3% | 110% | 96.6% | 97.3% | 102% | 94.3% | 96% | 93.3% | 104% | 98.7% | 95.5% | 98.9% | 0 | 0 | 0 | 0 | 0 | > 10 µM | > 10 µM | > 10 µM | > 10 µM | > 10 µM |
| COc1ccc2[nH]c([S+]([O-])Cc3ncc(C)c(OC)c3C)nc2c1 (stereo not given) [omeprazole] | 102% | 96.6% | 99.4% | 99.5% | 97% | 104% | 92.2% | 103% | 99% | 95% | 98.5% | 106% | 102% | 107% | 103% | 106% | 98.4% | 101% | 104% | 98.6% | 115% | 94.3% | 103% | 104% | 113% | 0 | 0 | 0 | 0 | 0 | > 10 µM | > 10 µM | > 10 µM | > 10 µM | > 10 µM |
| Cc1[nH]c(/C=C2\C(=O)Nc3ccccc32)c(C)c1CCC(=O)O [orantinib] | 98.3% | 103% | 106% | 98.7% | 100% | 101% | 96.9% | 102% | 104% | 97.5% | 107% | 103% | 103% | 96.2% | 98.1% | 98.1% | 94.3% | 101% | 99.1% | 98.4% | 98.8% | 104% | 107% | 106% | 99.2% | 0 | 0 | 0 | 0 | 0 | > 10 µM | > 10 µM | > 10 µM | > 10 µM | > 10 µM |
| Cc1nc2n(c(=O)c1CCN1CCC(c3noc4cc(F)ccc34)CC1)CCCC2O (stereo not given) [paliperidone] | 107% | 104% | 108% | 95% | 100% | 93.6% | 106% | 90.7% | 104% | 118% | 113% | 106% | 109% | 103% | 92.4% | 99.5% | 103% | 97% | 101% | 99.9% | 104% | 104% | 93.2% | 100% | 102% | 0 | 0 | 0 | 0 | 0 | > 10 µM | > 10 µM | > 10 µM | > 10 µM | > 10 µM |
| Cc1cccc(Nc2cc(Cl)nc(SCC(=O)O)n2)c1C [pirinixic-acid] | 98.8% | 99.4% | 94.8% | 99.2% | 101% | 90% | 95.2% | 98.8% | 98.1% | 87.2% | 100% | 95.3% | 98.8% | 95.9% | 100% | 103% | 104% | 95.7% | 102% | 97.1% | 99.9% | 102% | 93.7% | 114% | 97.4% | 0 | 0 | 0 | 0 | 0 | > 10 µM | > 10 µM | > 10 µM | > 10 µM | > 10 µM |
| CC(C)(C)C(=O)NCCCC(=O)O [pivagabine] | 99% | 111% | 98.5% | 106% | 108% | 92.3% | 97.2% | 88.8% | 95.9% | 92.2% | 95.1% | 99.2% | 96.4% | 98.3% | 91.7% | 101% | 105% | 98.4% | 101% | 102% | 101% | 110% | 98.3% | 99.1% | 106% | 0 | 0 | 0 | 0 | 0 | > 10 µM | > 10 µM | > 10 µM | > 10 µM | > 10 µM |
| CC(C(=O)O)c1ccc2c(c1)Cc1cccnc1O2 (stereo not given) [pranoprofen] | 95.8% | 103% | 94.1% | 104% | 111% | 88.3% | 86.7% | 89.5% | 95.3% | 102% | 96.2% | 96.5% | 98.4% | 100% | 105% | 104% | 99.1% | 95.2% | 104% | 106% | 97.5% | 92.9% | 97.1% | 100% | 108% | 0 | 0 | 0 | 0 | 0 | > 10 µM | > 10 µM | > 10 µM | > 10 µM | > 10 µM |
| CC(=O)[C@H]1CC[C@H]2[C@@H]3CCC4=CC(=O)CC[C@]4(C)[C@H]3CC[C@]12C [progesterone] | 102% | 99.9% | 102% | 96.4% | 95.6% | 97.4% | 98.8% | 98.4% | 87.2% | 82.9% | 92% | 108% | 91.3% | 96.8% | 110% | 100% | 98% | 101% | 100% | 96.8% | 95% | 98.4% | 87.2% | 94.5% | 92% | 0 | 1.3 | 0 | 0 | 0 | > 10 µM | > 10 µM | > 10 µM | > 10 µM | > 10 µM |
| COc1ccccc1OCC(O)CN1CCN(CC(=O)Nc2c(C)cccc2C)CC1 (stereo not given) [ranolazine] | 97.5% | 97.9% | 93% | 96.7% | 102% | 100% | 96.9% | 106% | 99.2% | 99.1% | 90.5% | 97.3% | 89.5% | 90.7% | 104% | 98.6% | 93.4% | 102% | 96.1% | 102% | 95% | 91.8% | 102% | 105% | 105% | 0 | 0 | 0 | 0 | 0 | > 10 µM | > 10 µM | > 10 µM | > 10 µM | > 10 µM |
| CCOc1ccccc1OC(c1ccccc1)C1CNCCO1 (stereo not given) [reboxetine] | 105% | 121% | 95.5% | 106% | 102% | 104% | 97.9% | 97.1% | 104% | 104% | 102% | 102% | 102% | 98.4% | 95.6% | 101% | 101% | 98.8% | 101% | 104% | 107% | 96.5% | 99.4% | 104% | 94.3% | 0 | 0 | 0 | 0 | 0 | > 10 µM | > 10 µM | > 10 µM | > 10 µM | > 10 µM |
| O=C(Nc1c(Cl)cncc1Cl)c1ccc(OC(F)F)c(OCC2CC2)c1 [roflumilast] | 106% | 96.9% | 101% | 101% | 128% | 104% | 101% | 97.3% | 100% | 101% | 101% | 91.2% | 99.3% | 102% | 103% | 96.4% | 98.5% | 94.2% | 94.8% | 99.5% | 89.1% | 107% | 94.2% | 93.8% | 98.6% | 0 | 0 | 0 | 0 | 0 | > 10 µM | > 10 µM | > 10 µM | > 10 µM | > 10 µM |
| C[C@@H]1O[C@@H](OC[C@H]2O[C@@H](Oc3c(-c4ccc(O)c(O)c4)oc4cc(O)cc(O)c4c3=O)[C@H](O)[C@@H](O)[C@@H]2O)[C@H](O)[C@H](O)[C@H]1O [rutin] | 104% | 101% | 86% | 106% | 98.1% | 118% | 98.9% | 115% | 101% | 113% | 98.6% | 100% | 98.8% | 111% | 104% | 101% | 107% | 96.1% | 98.5% | 102% | 107% | 90.4% | 102% | 85.9% | 101% | 0 | 0 | 0 | 0 | 0 | > 10 µM | > 10 µM | > 10 µM | > 10 µM | > 10 µM |
| NC(=O)c1ccccc1O [salicylamide] | 98.5% | 99.6% | 98.5% | 91.2% | 99.7% | 93.6% | 99% | 78.2% | 84.8% | 79.2% | 98% | 93.9% | 102% | 97.9% | 93% | 97.9% | 108% | 95.6% | 102% | 98.9% | 105% | 105% | 92% | 100% | 104% | 0 | 5.7 | 0 | 0 | 0 | > 10 µM | > 10 µM | > 10 µM | > 10 µM | > 10 µM |
| COCCNC(=O)Cn1cnc([N+](=O)[O-])n1 [sanazole] | 103% | 93.3% | 102% | 95.7% | 97.6% | 93% | 99.6% | 95.9% | 93.9% | 93.4% | 99.5% | 99.1% | 95.7% | 101% | 96.6% | 98.3% | 104% | 96.7% | 97.7% | 95.8% | 96.7% | 106% | 97.6% | 102% | 103% | 0 | 0 | 0 | 0 | 0 | > 10 µM | > 10 µM | > 10 µM | > 10 µM | > 10 µM |
